Experiments:
primary chondrocytes = experiment: lactate dehydrogenase (LDH) cytotoxicity assay; type: cell-based, mouse; details: 24 hours, concentration of about 200 μM or less (FIG. 1)
Description: (§1) Mouse chondrocytes isolated from femur and tibial plateau were obtained from ICR mice of 5-days old. Cells were cultured in Dulbecco's Modified Eagle's medium to which about 10% fetal bovine serum and about 1% penicillin/streptomycin, and then grown in an incubator under conditions maintained with about 5% CO2 and a temperature of about 37° C. C57BL/6 mice (male, 10-weeks old, weighing about 18 g to 20 g, and n=5) were purchased from DBL (Chungcheongbuk-do, South Korea). The C57BL/6 mice were housed at a temperature of about 23° C. and exposed to a light-dark cycle of about 12 hours. Food and water were provided regularly. All animal experiments were performed under the approval of the Ajou University Animal Care and Use Committee.
The primary chondrocytes were treated with obtusifolin (0 μM, about 25 μM, about 50 μM, about 100 μM, and about 200 μM) and cultured for about 24 hours. Then, the supernatant of the culture was collected and allowed for a reaction using a LDH-cytotoxicity assay kit (K311-400; BioVision). According to the recommendations provided by the kit manufacturer, values were measured.
In this experimental example, cytotoxicity of obtusifolin was measured using a lactate dehydrogenase-assay to determine whether obtusifolin affected chondrocytes. Detailed experimental methods were described in Reference Example.

[1] = test system: matrix metalloproteinase 3 (MMP3); experiment: MMP3 expression in IL-1β-treated chondrocytes (RT-PCR, qRT-PCR); type: cell-based, mouse
Description: (§2) Interleukin 1 beta (IL-1β) purchased from GenScript (Piscataway, NJ, USA) was dissolved in purified water. Obtusifolin and celecoxib were purchased from Sigma-Aldrich (St. Louis, MO, USA). Primary chondrocytes of the mice were cultured for 4 days under conditions of a temperature of about 37° C. and about 5% CO2. Afterwards, IL-1β (about 1 ng/mL) and either of obtusifolin or celecoxib were treated and cultured for about 24 hours. Then, the cultured chondrocytes were collected after about 5 days. To confirm the signal transduction pathway regulated by obtusifolin, the chondrocytes were pre-treated with obtusifolin or celecoxib and cultured for about 24 hours. […]
(§3) Chondrocyte RNAs were isolated using Trizol and chloroform. […] Transcription levels were quantified by qRT-PCR (ABI, Beverley, UK; StepOnePlus Real-Time PCR System). […]
(§4) In detail, chondrocytes treated with pro-inflammatory cytokine, IL-1β (about 1 ng/mL), for about 24 hours were treated with obtusifolin (about 0 μM to about 200 μM) or Celecoxib (about 50 μM). Then, in the resulting chondrocytes, the expression levels of matrix metalloproteinase 3 (MMP3), matrix metalloproteinase 13 (MMP13), and cyclooxygenase 2 (COX2) were measured by RT-PCR and qRT-PCR. In addition, the activity level of collagenase and the expression level of prostaglandin (PGE2) were measured. […]

[2] = test system: matrix metalloproteinase 13 (MMP13); experiment: MMP13 expression in IL-1β-treated chondrocytes (RT-PCR, qRT-PCR); type: cell-based, mouse
Description: as §2, §3, §4

cyclooxygenase 2 (COX2) = experiment: COX2 expression in IL-1β-treated chondrocytes (RT-PCR, qRT-PCR); type: cell-based, mouse
Description: as §2, §3, §4

collagenase = experiment: total collagenase activity of IL-1β-treated chondrocytes (EnzCheck Gelatinase/Collagenase Assay kit); type: cell-based, mouse
Description: (§5) PGE2 production was evaluated using a PGE2 Immunoassay Kit (R & D System, Minneapolis, Minnesota, USA). Primary articular chondrocytes of mouse were seeded in a 96-well plate (about 2×10^4 cells/well). The level of secreted PGE2 in the primary chondrocytes of mouse treated with obtusifolin and IL-1β (about 1 ng/mL) was measured from the […]. By using an EnzCheck Gelatinase/Collagenase Assay kit (Molecular Probes, Carlsbad, CA, USA), total collagenase activity of the articular chondrocytes cultured in a medium conditioned with obtusifolin and IL-1β (about 1 ng/mL) was measured. The collagenase activity was quantified using a VICTOR X3 microplate reader (PerkinElmer, Waltham, MA, USA) at Ex/Em=490/530 nm according to the protocol provided by the manufacturer. […] After culturing the transfected cells in a complete medium for about 24 hours, luciferase activity was evaluated using an analysis kit (Promega, Madison, WI, USA), and the evaluated activity was normalized by β-galactosidase.
as §4, with “qRT-PCR.” for “qRT-PCR. In addition, the activity level of collagenase and the expression level of prostaglandin (PGE2) were measured.”

prostaglandin E2 (PGE2) = experiment: PGE2 production in IL-1β-treated chondrocytes (PGE2 Immunoassay Kit); type: cell-based, mouse
Description: as §5
as §4, with “qRT-PCR.” for “qRT-PCR. In addition, the activity level of collagenase and the expression level of prostaglandin (PGE2) were measured.”

p65 = p65 phosphorylation (NF-κB signal transduction) in IL-1β-treated chondrocytes, Western blotting and densitometry; type: cell-based, mouse
Description: as §2, §3
Here, as a loading control group, Erk1/2 was used. Band intensity was quantified by densitometry (AlphaEase FC 4.0; Alpha Innotech).
In detail, the chondrocytes treated with the pro-inflammatory cytokine, IL-1β (about 1 ng/mL), were collected, and the phosphorylation levels of p38, JNK, and p65 were measured through Western blotting. […] The chondrocytes were collected after the culture, and the phosphorylation level of p65 was measured through Western blotting and densitometry. […]

[3] = test system: mice that have undergone DMM surgery; experiment: cartilage destruction induced by DMM surgery, mouse model, oral administration; type: in vivo
Description: as §1
According to a known technique, destabilization of the medial meniscus (DMM) surgery was performed on a mouse of about 10 week old to induce OA. Here, a Sham-operated mouse was used as a control group. […]
A mouse cartilage sample obtained from the mouse undergoing the DMM surgery was fixed about 4% para-formaldehyde followed by dehydration for about 2 weeks in about 0.5 mol/L EDTA (pH 8.0), to decalcify. […] The cartilage destruction was measured by Safranin O staining and scored using an Osteoarthritis Research […] International (OARSI) grading system.
Data values were expressed as mean±SEM after repeated experiments. […] Histological data were quantified based on an ordinal grading system including OARSI grades, subchondral bone plate thickness scores, and osteophyte grades, using non-parametric statistical methods. […]
In detail, the DMM surgery or shame surgery was performed on mice, and after about 4 weeks of the surgery, obtusifolin (about 10 mg/kg, about 50 mg/kg, or about 100 mg/kg) was administered to each mouse every day for 6 weeks. […] The degree of cartilage destruction was analyzed by analyzing images obtained after the staining. In detail, the OARSI grades, the degree of osteophyte formation, and a thickness of the subchondral bone were measured. […]

[4] = chondrocytes treated with IL-1β (about 1 ng/mL), obtusifolin about 0 μM to about 200 μM (FIGS. 2A, 2B)
[5] = obtusifolin about 100 μM to about 200 μM vs Celecoxib about 50 μM
[6] = chondrocytes treated with IL-1β (about 1 ng/mL), obtusifolin about 0 μM to about 200 μM (FIG. 2C)

Question: What does the source list for `COc1c(O)c(C)cc2c1C(=O)c1c(O)cccc1C2=O` [obtusifolin]?
Answer: cytotoxicity (primary chondrocytes): did not exhibit cytotoxicity; expression level of MMP3 [1, 4]: decreased in a dose-dependent manner; effect of reducing expression of MMP3 compared with Celecoxib [1, 5]: the same or similar level of effects as Celecoxib; expression of MMP13 [2, 4]: decreased again; effect of reducing expression of MMP13 compared with Celecoxib [2, 5]: the same or similar level of effects as Celecoxib; expression level of COX2 (cyclooxygenase 2 (COX2); [4]): decreased in a dose-dependent manner; effect of reducing expression of COX2 compared with Celecoxib (cyclooxygenase 2 (COX2); [5]): the same or similar level of effects as Celecoxib; activity of collagenase (collagenase; [6]): decreased in a dose-dependent manner; effect of reducing activity of collagenase compared with Celecoxib (collagenase; [5]): the same or similar level of effects as Celecoxib; expression of PGE2 (prostaglandin E2 (PGE2); [6]): decreased in a dose-dependent manner; effect of reducing expression of PGE2 compared with Celecoxib (prostaglandin E2 (PGE2); [5]): the same or similar level of effects as Celecoxib; inhibition of phosphorylation of P65 compared with Celecoxib (p65; [5]): the same or similar level to that of Celecoxib; phosphorylation of P65 (p65; pre-treated 24 hours with obtusifolin about 0 μM to 200 μM, then IL-1β (about 1 ng/mL) 10 minutes, as concentration increased (FIGS. 3B, 3C)): the phosphorylation of P65 was inhibited; formation of osteophytes ([3]; DMM surgery mice, oral about 10, 50 or 100 mg/kg every day for 6 weeks (FIG. 5C)): reduced in a dose-dependent manner; degree of cartilage destruction (Safranin O staining) ([3]; DMM surgery mice, oral about 10, 50 or 100 mg/kg every day for 6 weeks from 4 weeks after surgery (FIG. 5A)): decreased in a dose-dependent manner; effects according to the dose concentration in sham surgery mice ([3]; sham surgery mice, oral about 10, 50 or 100 mg/kg every day for 6 weeks (FIGS. 5A to 5D)): no difference in the effects

Reference: US11931324B2, “Pharmaceutical composition for prevention or treatment of osteoarthritis comprising obtusifolin, derivative thereof, or pharmaceutically acceptable salt thereof as active ingredient” (KOREA INSTITUTE OF SCIENCE AND TECHNOLOGY, priority 2021, dated 2024)
